Results from US20260078111A1, “CARBONIC ANHYDRASE ENZYME INHIBITORS AND METHODS OF USE THEREOF” (RUTGERS, THE STATE UNIVERSITY OF NEW JERSEY, priority 2022, published 2026).
Read-outs that look alike come from different tables or passages of the source.

Experiments:
[1] = test system: mast cell development from murine bone marrow cells; assay: In vitro mast cell development culture assay (IL-3, flow cytometry); type: cell-based, mice; conditions: for inhibition at 15 µM: read-out: POI (percent of inhibition based on MC numbers); for Percent Inhibition at 10 μm: in vitro mast cell cultures
Description: To further test the ability of 4-(3-hydroxy-1-(4-methoxybenzyl)-2-oxoindolin-3-yl)benzenesulfonamide to inhibit mast cell development, an established mast cell culture assay was employed (Henry, E. K., et al., J Exp Med, 2016. 213(9): p. 1663-73). As a positive control for mast cell development, bone marrow cells were isolated from the femur of mice and cultured in the presence of 10 ng/mL of IL-3 and vehicle (1:10, DMSO/RPMI complete media) for seven days and mast cells were identified by flow cytometric analysis as (c-Kit+ FceRIa+ CD49b− cells).
In vitro Mast Cell development: Briefly, 1×10^6 bone marrow-resident progenitor cells were isolated from the femur of mice and cultured in complete media supplemented with 10 ng/mL of rIL-3 for a period of […]. Mast cells were identified by their expression of the surface molecules FcεRIα and c-Kit via flow cytometric analysis. In addition to IL-3, cultures were treated with vehicle or increasing concentrations of Car enzyme inhibitors at the indicated concentrations.

recombinant human Car1 = recombinant human Car1 (Homo sapiens, UniProt P00915); assay: Stopped-flow assay of Car1 enzyme inhibition (IC50); type: biochemical
Description: Stopped-flow: IC50 values were established using an SX20 stopped-flow spectrometer from […]. In one syringe of the SX20, recombinant human Car1 was kept at a concentration of 9 μM in a sodium phosphate buffer and inhibitors were added to this solution at 0 nM, 10 nM, 20 nM, 80 nM and 100 nM. In a second syringe, a saturated CO2 solution was mixed with 0.2 mM phenol red. This series of dilutions allow for the evaluation of how quickly Car1 can metabolize the CO2 in the absence of an inhibitor and for the determination of whether that process is inhibited as increasing concentrations of compounds are added.

[2] = Mus musculus, Mast cell, Table 3, at 15 uM

recombinant human Car1, sequence (P00915 whole entry): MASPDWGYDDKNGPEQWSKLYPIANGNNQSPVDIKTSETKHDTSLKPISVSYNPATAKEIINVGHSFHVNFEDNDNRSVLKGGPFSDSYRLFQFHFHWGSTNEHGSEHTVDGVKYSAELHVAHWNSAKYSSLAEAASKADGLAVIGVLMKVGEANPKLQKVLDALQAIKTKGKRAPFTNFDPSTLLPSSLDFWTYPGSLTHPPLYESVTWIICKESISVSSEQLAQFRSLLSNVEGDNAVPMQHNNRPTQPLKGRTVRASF

NS(=O)(=O)c1ccc(C2(O)C(=O)N(c3cccc4cc(Cl)ccc34)c3ccccc32)cc1 (stereo not drawn) [NEM-35A, 4-[1-(6-chloro-1-naphthyl)-3-hydroxy-2-oxo-indolin-3-yl]benzenesulfonamide]
inhibition at 15 µM ([1]; Mus musculus, Mast cell): 99%

NS(=O)(=O)c1ccc(C2(O)C(=O)Nc3ccccc32)cc1 (stereo not drawn)
Percent Inhibition at 10 μm [1]: 94%

NS(=O)(=O)c1ccc(C2(O)C(=O)N(Cc3ccc(OC(F)F)cc3)c3ccccc32)cc1 (stereo not drawn) [NEM-4A, 4-[1-[[4-(difluoromethoxy)phenyl]methyl]-3-hydroxy-2-oxo-indolin-3-yl]benzenesulfonamide]
inhibition at 15 µM ([1]; Mus musculus, Mast cell): 82%

COc1ccc(N2C(=O)C(O)(c3ccc(S(N)(=O)=O)cc3)c3ccccc32)cc1 (stereo not drawn) [NEM-13A, 4-[3-hydroxy-1-(4-methoxyphenyl)-2-oxo-indolin-3-yl]benzenesulfonamide]
inhibition at 15 µM ([1]; Mus musculus, Mast cell): 87%

NS(=O)(=O)c1ccc(C2(O)C(=O)N(Cc3ccc(N4CCCCC4)cc3)c3ccccc32)cc1 (stereo not drawn) [NEM-19A, 4-[3-hydroxy-2-oxo-1-[[4-(1-piperidyl)phenyl]methyl]indolin-3-yl]benzenesulfonamide]
inhibition at 15 µM ([1]; Mus musculus, Mast cell): 99%

CC(C)(C)OC(=O)N1CCC(c2ccc(CN3C(=O)C(O)(c4ccc(S(N)(=O)=O)cc4)c4ccccc43)cc2)CC1 (stereo not drawn) [NEM-30A, tert-butyl 4-[4-[[3-hydroxy-2-oxo-3-(4-sulfamoylphenyl)indolin-1-yl]methyl]phenyl]piperidine-1-carboxylate]
inhibition at 15 µM ([1]; Mus musculus, Mast cell): 100%

NS(=O)(=O)c1ccc(C2(O)C(=O)N(Cc3ccc(F)c(F)c3)c3ccccc32)cc1 (stereo not drawn) [NEM-9A, 4-[1-[(3,4-difluorophenyl)methyl]-3-hydroxy-2-oxo-indolin-3-yl]benzenesulfonamide]
IC50 (recombinant human Car1): 51.3 nM
inhibition at 15 µM [1, 2]: 18%

NS(=O)(=O)c1ccc(C2(O)C(=O)N(Cc3ccc(N4CCC(F)(F)CC4)cc3)c3ccccc32)cc1 (stereo not drawn) [NEM-20A, 4-[1-[[4-(4,4-difluoro-1-piperidyl)phenyl]methyl]-3-hydroxy-2-oxo-indolin-3-yl]benzenesulfonamide]
inhibition at 15 µM ([1]; Mus musculus, Mast cell): 100%

COc1ccc(CN2C(=O)C(F)(c3ccc(S(N)(=O)=O)cc3)c3ccccc32)cc1 (stereo not drawn)
Percent Inhibition at 10 μm [1]: 99%

NS(=O)(=O)c1ccc(C2(O)C(=O)N(Cc3ccc(F)cc3)c3ccccc32)cc1 (stereo not drawn)
Percent Inhibition at 10 μm [1]: 98%

CC(C)(C)OC(=O)N1CCN(c2ccc(CN3C(=O)C(O)(c4ccc(S(N)(=O)=O)cc4)c4ccccc43)cc2)CC1 (stereo not drawn) [NEM-32A, tert-butyl 4-[4-[[3-hydroxy-2-oxo-3-(4-sulfamoylphenyl)indolin-1-yl]methyl]phenyl]piperazine-1-carboxylate]
inhibition at 15 µM ([1]; Mus musculus, Mast cell): 100%

NS(=O)(=O)c1ccc(C2(O)C(=O)N(Cc3ccc(N4CCNCC4)cc3)c3ccccc32)cc1 (stereo not drawn) [NEM-22A, 4-[3-hydroxy-2-oxo-1-[(4-piperazin-1-ylphenyl)methyl]indolin-3-yl]benzenesulfonamide]
inhibition at 15 µM ([1]; Mus musculus, Mast cell): 53%

NS(=O)(=O)c1ccc(C2(O)C(=O)N(Cc3ccc(-c4ccncc4)cc3)c3ccccc32)cc1 (stereo not drawn) [NEM-23A, 4-[3-hydroxy-2-oxo-1-[[4-(4-pyridyl)phenyl]methyl]indolin-3-yl]benzenesulfonamide]
IC50 (recombinant human Car1): 77 nM
inhibition of mast cell numbers ([1]; 100 nM, titration, FIG. 3): inhibits mast cell numbers
inhibition of mast cell numbers (POI) compared to MZ at 126 uM ([1]; 5 uM): comparable level than MZ at 126 uM
inhibition of mast cell numbers (POI) compared to MZ at 126 uM ([1]; 10 uM): comparable level than MZ at 126 uM
inhibition of mast cell numbers (POI) compared to MZ at 126 uM ([1]; 15 uM): comparable level than MZ at 126 uM
inhibition at 0.25 µM ([1]; Mus musculus, Mast cell, 250 nM, titration, FIG. 3, read-out: inhibition of mast cell numbers): ~50%
inhibition at 15 µM [1, 2]: 99%

NS(=O)(=O)c1ccc(C2(O)C(=O)N(Cc3ccc4ncccc4c3)c3ccccc32)cc1 (stereo not drawn) [NEM-26A, 4-[3-hydroxy-2-oxo-1-(6-quinolylmethyl)indolin-3-yl]benzenesulfonamide]
inhibition at 15 µM ([1]; Mus musculus, Mast cell): 82%

NS(=O)(=O)c1ccc(C2(O)C(=O)N(Cc3cc[n+]([O-])cc3)c3ccccc32)cc1 (stereo not drawn) [NEM-10A, 4-[3-hydroxy-1-[(1-oxidopyridin-1-ium-4-yl)methyl]-2-oxo-indolin-3-yl]benzenesulfonamide]
IC50 (recombinant human Car1): 33.8 nM
inhibition at 15 µM [1, 2]: 11%

NS(=O)(=O)c1ccc(C2(O)C(=O)N(Cc3ccc(-n4ccnc4)cc3)c3ccccc32)cc1 (stereo not drawn) [NEM-25A, 4-[3-hydroxy-1-[(4-imidazol-1-ylphenyl)methyl]-2-oxo-indolin-3-yl]benzenesulfonamide]
inhibition at 15 µM ([1]; Mus musculus, Mast cell): 87%

CCN1C(=O)C(O)(c2ccc(S(N)(=O)=O)cc2)c2ccccc21 (stereo not drawn)
Percent Inhibition at 10 μm [1]: 99%

NS(=O)(=O)c1ccc(C2(O)C(=O)N(Cc3ccc(-c4ccnc(C(F)(F)F)c4)cc3)c3ccccc32)cc1 (stereo not drawn) [NEM-45A, 4-[3-hydroxy-2-oxo-1-[[4-[2-(trifluoromethyl)-4-pyridyl]phenyl]methyl]indolin-3-yl]benzenesulfonamide]
inhibition at 15 µM ([1]; Mus musculus, Mast cell): 100%

NS(=O)(=O)c1ccc(C2(O)C(=O)N(c3cccc4cc(F)ccc34)c3ccccc32)cc1 (stereo not drawn) [NEM-34A, 4-[1-(6-fluoro-1-naphthyl)-3-hydroxy-2-oxo-indolin-3-yl]benzenesulfonamide]
inhibition at 15 µM ([1]; Mus musculus, Mast cell): 99%

NS(=O)(=O)c1ccc(C2(F)C(=O)N(Cc3ccc(F)cc3)c3ccccc32)cc1 (stereo not drawn)
Percent Inhibition at 10 μm [1]: 98%

NS(=O)(=O)c1ccc(C2(O)C(=O)N(Cc3ccc(N4CCCC4)cc3)c3ccccc32)cc1 (stereo not drawn) [NEM-24A, 4-[3-hydroxy-2-oxo-1-[(4-pyrrolidin-1-ylphenyl)methyl]indolin-3-yl]benzenesulfonamide]
IC50 (recombinant human Car1): 44.3 nM
inhibition at 15 µM [1, 2]: 99%

NS(=O)(=O)c1ccc(C2(O)C(=O)N(c3cccc4cc5c(cc34)OCO5)c3ccccc32)cc1 (stereo not drawn) [NEM-37A, 4-(1-benzo[f][1,3]benzodioxol-5-yl-3-hydroxy-2-oxo-indolin-3-yl)benzenesulfonamide]
IC50 (recombinant human Car1): 5.3 nM
inhibition at 15 µM [1, 2]: 100%

NS(=O)(=O)c1ccc(C2(O)C(=O)N(Cc3ccc(C4CCNCC4)cc3)c3ccccc32)cc1 (stereo not drawn) [NEM-21A, 4-[3-hydroxy-2-oxo-1-[[4-(4-piperidyl)phenyl]methyl]indolin-3-yl]benzenesulfonamide]
inhibition at 15 µM ([1]; Mus musculus, Mast cell): 81%

CCN1C(=O)C(F)(c2ccc(S(N)(=O)=O)cc2)c2ccccc21 (stereo not drawn)
Percent Inhibition at 10 μm [1]: 99%

NS(=O)(=O)c1ccc(C2(O)C(=O)N(CC3CCOCC3)c3ccccc32)cc1 (stereo not drawn) [NEM-12A, 4-[3-hydroxy-2-oxo-1-(tetrahydropyran-4-ylmethyl)indolin-3-yl]benzenesulfonamide]
IC50 (recombinant human Car1): 62.5 nM
inhibition at 15 µM [1, 2]: 6%

CN1C(=O)C(F)(c2ccc(S(N)(=O)=O)cc2)c2ccccc21 (stereo not drawn)
Percent Inhibition at 10 μm [1]: 100%

COc1ccc(CN2C(=O)C(O)(c3ccc(S(N)(=O)=O)cc3)c3ccccc32)cc1 (stereo not drawn) [drawing 86]
Percent Inhibition at 10 μm [1]: 91%

NS(=O)(=O)c1ccc(C2(O)C(=O)N(Cc3ccc(N4CCOCC4)cc3)c3ccccc32)cc1 (stereo not drawn) [NEM-14A, 4-[3-hydroxy-1-[(4-morpholinophenyl)methyl]-2-oxo-indolin-3-yl]benzenesulfonamide]
IC50 (recombinant human Car1): 34 nM
inhibition of mast cell numbers (POI) compared to MZ at 126 uM ([1]; 10 uM): comparable inhibition of mast cell numbers with the control, MZ, at 126 uM
inhibition of mast cell numbers (POI) compared to MZ at 126 uM ([1]; 15 uM): significantly higher inhibition than MZ at 126 uM
inhibition at 15 µM [1, 2]: 98%

NS(=O)(=O)c1ccc(C2(O)C(=O)N(c3cccc4cc(N5CCOCC5)ccc34)c3ccccc32)cc1 (stereo not drawn) [NEM-36A, 4-[3-hydroxy-1-(6-morpholino-1-naphthyl)-2-oxo-indolin-3-yl]benzenesulfonamide]
inhibition at 15 µM ([1]; Mus musculus, Mast cell): 91%

NS(=O)(=O)c1ccc(C2(O)C(=O)N(c3cccc4cnccc34)c3ccccc32)cc1 (stereo not drawn) [NEM-38A, 4-[3-hydroxy-1-(5-isoquinolyl)-2-oxo-indolin-3-yl]benzenesulfonamide]
inhibition at 15 µM ([1]; Mus musculus, Mast cell): 63%

NS(=O)(=O)c1ccc(C2(O)C(=O)N(Cc3ccc4c(c3)OCO4)c3ccccc32)cc1 (stereo not drawn) [NEM-41A, 4-[1-(1,3-benzodioxol-5-ylmethyl)-3-hydroxy-2-oxo-indolin-3-yl]benzenesulfonamide]
inhibition at 15 µM ([1]; Mus musculus, Mast cell): 64%

COc1ccc2c(N3C(=O)C(O)(c4ccc(S(N)(=O)=O)cc4)c4ccccc43)cccc2c1 (stereo not drawn) [NEM-15A, 4-[3-hydroxy-1-(6-methoxy-1-naphthyl)-2-oxo-indolin-3-yl]benzenesulfonamide]
IC50 (recombinant human Car1): 35.3 nM
inhibition of mast cell numbers (POI) compared to MZ at 126 uM ([1]; 10 uM): significantly higher inhibition of mast cell numbers than MZ at 126 uM
inhibition of mast cell numbers (POI) compared to MZ at 126 uM ([1]; 15 uM): significantly higher inhibition of mast cell numbers than MZ at 126 uM
inhibition at 15 µM [1, 2]: 100%

NS(=O)(=O)c1ccc(C2(O)C(=O)N(c3ccc(Br)cc3)c3ccccc32)cc1 (stereo not drawn) [NEM-27A, 4-[1-(4-bromophenyl)-3-hydroxy-2-oxo-indolin-3-yl]benzenesulfonamide]
inhibition at 15 µM ([1]; Mus musculus, Mast cell): 94%

CN1C(=O)C(O)(c2ccc(S(N)(=O)=O)cc2)c2ccccc21 (stereo not drawn)
Percent Inhibition at 10 μm [1]: 84%
